ChEMBL document CHEMBL4038348 (J Med Chem, 2017)

Experiment: physchem
Settings: octanol/water, pH 7.4
Description: 1-octanol/aqueous buffer solution partition coefficient, log D of the compound at pH 7.4 by UV-HPLC method

| SMILES | logD |
| --- | --- |
| COCC(NC(=O)N1CC(=O)Nc2cc(OC)cnc21)c1ccc(C(F)(F)F)cc1 (stereo in doubt; 34) | 3.03 |
| CCC(NC(=O)N1CC(=O)Nc2cccnc21)c1ccc(N2CCC2)cc1 (configuration not stated) | 3.13 |
